One data set deals with T1, BCRP (Homo sapiens, UniProt Q9UNQ0).
T1 sequence (Q9UNQ0 1-655): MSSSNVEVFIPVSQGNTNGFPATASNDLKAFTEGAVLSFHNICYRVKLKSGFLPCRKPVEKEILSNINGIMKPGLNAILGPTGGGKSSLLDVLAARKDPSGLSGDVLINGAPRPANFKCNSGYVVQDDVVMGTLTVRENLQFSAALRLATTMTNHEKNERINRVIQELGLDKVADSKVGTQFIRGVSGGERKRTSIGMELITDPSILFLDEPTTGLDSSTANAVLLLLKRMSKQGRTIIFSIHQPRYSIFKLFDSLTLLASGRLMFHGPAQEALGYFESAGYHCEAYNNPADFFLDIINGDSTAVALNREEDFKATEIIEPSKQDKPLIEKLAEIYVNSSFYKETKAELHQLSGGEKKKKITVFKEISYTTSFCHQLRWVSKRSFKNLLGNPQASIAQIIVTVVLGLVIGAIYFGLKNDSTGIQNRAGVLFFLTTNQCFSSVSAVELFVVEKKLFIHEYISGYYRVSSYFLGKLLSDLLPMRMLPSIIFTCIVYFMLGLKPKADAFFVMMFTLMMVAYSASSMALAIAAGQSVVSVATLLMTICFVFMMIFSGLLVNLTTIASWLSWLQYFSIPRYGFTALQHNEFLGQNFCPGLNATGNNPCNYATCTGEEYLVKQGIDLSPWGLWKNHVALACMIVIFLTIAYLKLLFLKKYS
Nature of the data set: In vitro BCRP inhibition, HEK293-BCRP membrane vesicles, rosuvastatin probe. In kind it is biochemical.

Data set [1] deals with T2, OATP1B1 (Homo sapiens, UniProt Q9Y6L6).
T2 sequence (Q9Y6L6 1-691): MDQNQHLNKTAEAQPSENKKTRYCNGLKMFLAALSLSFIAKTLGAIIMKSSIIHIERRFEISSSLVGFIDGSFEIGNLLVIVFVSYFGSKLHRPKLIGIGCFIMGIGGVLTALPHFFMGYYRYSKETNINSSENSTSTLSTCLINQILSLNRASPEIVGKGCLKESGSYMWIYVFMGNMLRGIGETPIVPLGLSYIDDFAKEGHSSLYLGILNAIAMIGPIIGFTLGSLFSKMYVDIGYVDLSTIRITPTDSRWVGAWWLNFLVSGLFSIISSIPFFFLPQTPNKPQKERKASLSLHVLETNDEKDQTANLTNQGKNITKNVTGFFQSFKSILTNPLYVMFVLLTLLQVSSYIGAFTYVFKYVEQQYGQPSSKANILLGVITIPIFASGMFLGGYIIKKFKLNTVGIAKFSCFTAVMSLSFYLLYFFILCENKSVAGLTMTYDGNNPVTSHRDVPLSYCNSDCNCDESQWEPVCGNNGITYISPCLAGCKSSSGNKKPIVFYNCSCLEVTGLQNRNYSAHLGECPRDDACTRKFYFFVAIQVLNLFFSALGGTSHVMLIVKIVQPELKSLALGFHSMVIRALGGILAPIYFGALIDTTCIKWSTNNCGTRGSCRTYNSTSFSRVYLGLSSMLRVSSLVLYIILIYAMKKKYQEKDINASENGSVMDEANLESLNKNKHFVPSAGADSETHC
Nature of the data set: In vitro OATP1B1 inhibition, transfected HEK293 cells, rosuvastatin probe. In kind it is cell-based.

Data set [2] deals with T3, OATP1B3 (Homo sapiens, UniProt Q9NPD5).
T3 sequence (Q9NPD5 1-702): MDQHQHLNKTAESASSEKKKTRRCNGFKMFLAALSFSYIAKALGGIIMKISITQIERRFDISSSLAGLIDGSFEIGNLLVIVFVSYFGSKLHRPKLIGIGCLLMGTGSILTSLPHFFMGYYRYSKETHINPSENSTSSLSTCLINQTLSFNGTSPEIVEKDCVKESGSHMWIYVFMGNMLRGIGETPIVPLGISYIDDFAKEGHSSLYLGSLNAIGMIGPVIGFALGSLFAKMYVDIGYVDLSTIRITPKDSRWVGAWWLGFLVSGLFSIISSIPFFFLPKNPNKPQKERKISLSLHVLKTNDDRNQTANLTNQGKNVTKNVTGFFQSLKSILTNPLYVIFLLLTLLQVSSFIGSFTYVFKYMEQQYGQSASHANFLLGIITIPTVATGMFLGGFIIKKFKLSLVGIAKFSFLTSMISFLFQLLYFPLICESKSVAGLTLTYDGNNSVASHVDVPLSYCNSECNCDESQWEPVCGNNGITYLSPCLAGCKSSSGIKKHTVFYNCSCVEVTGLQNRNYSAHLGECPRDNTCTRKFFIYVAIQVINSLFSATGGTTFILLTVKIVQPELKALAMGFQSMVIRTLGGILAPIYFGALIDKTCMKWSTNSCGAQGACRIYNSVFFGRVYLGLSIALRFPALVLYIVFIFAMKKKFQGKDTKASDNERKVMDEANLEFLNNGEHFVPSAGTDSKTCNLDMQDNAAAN
Nature of the data set: In vitro OATP1B3 inhibition, transfected HEK293 cells, rosuvastatin probe. It counts as cell-based.

In data set [3] the target is T2, OATP1B1. Description: Static DDI risk assessment, OATP1B1 R-value. The conditions noted are these: 1 + Iin,max,u/IC50; metabolite/combination additive; Imax,u for IV.
Data set [4] deals with T3, OATP1B3. Nature of the data set: Static DDI risk assessment, OATP1B3 R-value. Particulars: 1 + Iin,max,u/IC50; metabolite/combination additive; Imax,u for IV.
The conditions of data set [5]: cited from earlier work; for Rosuvastatin AUC ratio: observed, rosuvastatin with vs without inhibitor; for Rosuvastatin AUC ratio / Cmax ratio Observed: ref Table S1; for Cmax ratio Observed: rosuvastatin with/without inhibitor, regimens as in table row.
Data set [6] has as its system OATP1B1. The conditions noted are these: cited from earlier work.

Data on six molecules can be found in PMC8452302 (CPT: Pharmacometrics & Systems Pharmacology, 2021).

Read-outs that look alike come from different tables or passages of the source. Where only a bound is given, the exact number is not on record here.

What is called IC50 is the concentration needed to halve the response being measured.

With `COC(=O)N[C@H](C(=O)N1CCC[C@H]1c1nc(-c2ccc3c(c2)O[C@@H](c2ccccc2)n2c-3cc3cc(-c4c[nH]c([C@@H]5CCCN5C(=O)[C@@H](NC(=O)OC)C(C)C)n4)ccc32)c[nH]1)C(C)C` [Elbasvir], the values for the IC50 on BCRP, against OATP1B1 [1] and against OATP1B3 [2] were 0.14 µM, 7.8 µM and over 10 µM, respectively. For the same molecule, the “1B1 R-Value” on OATP1B1 [3] was 1.00. In addition, at OATP1B3 [4], the “1B3 R-Value” is given as 1.00. Also, the “Rosuvastatin AUC ratio” value in data set [5] was 1.42.

For the molecule `CC1=NN(c2ccc(C)c(C)c2)C(=O)/C1=N\Nc1cccc(-c2cccc(C(=O)O)c2)c1O` [Eltrombopag], the results for the IC50 against BCRP, against OATP1B1 [1] and against OATP1B3 [2] were 0.95 µM, 27.3 µM and 3 µM, respectively. Moreover, on OATP1B1 [3], the “1B1 R-Value” worked out at 1.01. Moreover, on OATP1B3 [4], the “1B3 R-Value” worked out at 1.10. Also, the “Rosuvastatin AUC ratio” value in data set [5] is reported as 1.55.

On BCRP, `C[C@H]1CN(C2COC2)CCN1c1ccc(Nc2cc(-c3ccnc(N4CCn5c(cc6c5CC(C)(C)C6)C4=O)c3CO)cn(C)c2=O)nc1` [Fenebrutinib] came in with an IC50 of 0.63 µM. This molecule had an IC50 against OATP1B1 [1] of 6.8 µM. Further, on OATP1B3 [2], 1.1 µM corresponded to half-maximal inhibition (IC50). The “1B1 R-Value” on OATP1B1 [3] worked out at 1.46. At OATP1B3 [4], the “1B3 R-Value” is 3.86. Also, in data set [5], the “increase in rosuvastatin AUC” value is on record as ~ 150%, the “Rosuvastatin AUC ratio” value was 2.48 and the “Cmax ratio Observed” value is recorded as 4.74. In the data set on OATP1B1 [6], the “change in plasma exposure of OATP1B1 biomarker coproporphyrin I” value is reported as “no change”.

`C=C[C@@H]1C[C@]1(NC(=O)[C@@H]1C[C@@H]2CN1C(=O)[C@H](C(C)(C)C)NC(=O)O[C@@H]1C[C@H]1CCCCCc1nc3ccc(OC)cc3nc1O2)C(=O)NS(=O)(=O)C1CC1.O` [Grazoprevir]: the half-maximal inhibitory concentration (IC50) at BCRP (read-out: BCRP IC50, membrane vesicles, rosuvastatin 0.2 µM probe) was determined as 4.03 µM. Also, the “1B1 R-Value” at OATP1B1 [3] is 1.24. For the same molecule, the “1B3 R-Value” at OATP1B3 [4] amounted to 1.07. In addition, in data set [5], the “Rosuvastatin AUC ratio” value is 1.59 and the “Cmax ratio Observed” value is on record as 4.25. For the same molecule, in the data set on OATP1B1 [6], the “effect on clinical PK of pitavastatin (OATP1B1 probe substrate)” value is on record as “do not alter”.

Turning to `CCC(C)n1ncn(-c2ccc(N3CCN(c4ccc(OCC5COC(Cn6cncn6)(c6ccc(Cl)cc6Cl)O5)cc4)CC3)cc2)c1=O` (stereo not shown) [Itraconazole], the half-inhibitory concentration (IC50) is 3.2 µM against BCRP, 12.9 µM on OATP1B1 [1] and over 20 µM against OATP1B3 [2]. Also, on OATP1B1 [3], the “1B1 R-Value” was 1.01. Besides, at OATP1B3 [4], the “1B3 R-Value” is given as 1.00. For the same molecule, in data set [5], the “Rosuvastatin AUC ratio” value is given as 1.26. In addition, the “Cmax ratio Observed” value in data set [5] is 1.38.

Turning to `CC[C@H]1[C@@H](O)[C@@H]2[C@H](CC[C@]3(C)[C@@H]([C@H](C)CCC(=O)O)CC[C@@H]23)[C@@]2(C)CC[C@@H](O)C[C@@H]12` [Obeticholic acid], the 50% inhibitory concentration (IC50) on BCRP amounted to 4.1 µM; against OATP1B1 [1], 1.96 µM; on OATP1B3 [2], 2.15 µM. In addition, the “1B1 R-Value” at OATP1B1 [3] amounted to 1.02. Also, on OATP1B3 [4], the “1B3 R-Value” was 1.02. In addition, the “Rosuvastatin AUC ratio” value in data set [5] is reported as 1.25.
